Converted amounts (≈) assume the structure as drawn. Blank lines part the entries; values can stand above or below the compound they belong to.
Columns and labels:
Assay type in all cases: physicochemical
[1] = Thermal treatment (heat-cool cycle by DSC, XRPD of resulting solids)
Description: Compound 3, Form E was treated with heat-cool cycle by DSC. The resulted solids were characterized by XRPD. Compound 3, Form E, was converted to Compound 3, Form D after desolvation.
Compound 4 Form B was treated with heat-cool cycle by DSC. The resulted solids were checked by XRPD. […] The water was excluded at elevated temperature, then entered in the crystal lattice again at room temperature.
Compound 4 Form C and trace Form B was treated with heat-cool cycle by DSC. The resulted solids were checked by XRPD. The sample was converted to low crystalline (LC) Form B after heating to 175° C.
Compound 4 Form D was treated with heat-cool cycle by DSC. The resulted solids were checked by XRPD. The sample kept unchanged after heating to 140° C., but was converted to a new low crystalline form after heating to 210° C. which was assigned to Form F.

[2] = Dynamic vapor sorption/desorption (DVS) with post-DVS XRPD; details: for Post-DVS XRPD: XRPD after DVS versus before; for Reversibility (DVS): sorption/desorption
Description: Moisture sorption/desorption data were collected on a DVS Intrinsic. 7-20 mg of a sample was placed into a tared sample chamber and automatically weighed. The anhydrates were analyzed with the following setting parameters:
DVS experiments (FIGS. 17, 19, 21, 34, 35, 48 and 50) and XRPD post-DVS experiments (FIGS. 18, 20, 22, 36, 49 and 51) were conducted in order to study the deliquescence behaviour of the crystalline salts upon expose to humidity.

[3] = Solid stability testing (HPLC purity and XRPD); details: for Solid stability: 60° C. (capped/close) and 40° C./75% RH (open) for 7 days; for Purity, Initial T0 / Purity - 7 days, 60° C. / Purity - 7 days, 40° C./75% RH: HPLC; for Purity, Initial T0 / XRPD, Initial T0: before storage; for Purity - 7 days, 60° C. / XRPD - 7 days, 60° C.: capped/closed vial; for Purity - 7 days, 40° C./75% RH / XRPD - 7 days, 40° C./75% RH: open
Description: HPLC analysis were performed with an Agilent HPLC 1260 series instrument. HPLC method for stability testing is as follows:
Solid stability testing of Compound 3, Form D was evaluated at the conditions of 60° C. (capped) and 40° C./75% RH (open) for 7 days. Polymorphic form and purity were analyzed by XRPD and HPLC, respectively. […] (capped) and 40° C./75% RH (open) for 7 days.
Solid stability testing of Compound 4 Form B and Form D were evaluated at the conditions of 60° C. (vial close) and 40° C./75% RH (vial open) for 7 days. Polymorphic form and purity were checked by XRPD and HPLC, respectively.

[4] = Comparative study (interconversion and water activity) between crystalline forms; details: Compound 3: Forms B, C, D, E, non-aqueous and aqueous systems; Compound 4: Forms B to G
Description: (capped) and 40° C. with 75% relative humidity (open).
Form D is stable at high water activity (0.16≤aW≤0.90). Solid stability study indicated Form D was physically and chemically stable at 60° C. (close) and 40° C. at 75% RH for 7 days.

[5] = Solubility of the salts in water / MTBE
Description: Solubility in water is >25 mg/mL.

[6] = Slurry study evaluated by XRPD; details: slurry started from Form B; Form C occurred at 30 min; at 60 min
[7] = Drying, physical stability of the form
Description: After being subjected to drying in a vacuum oven for 1 day at 62-72° C., Form A was characterized by XRPD (FIG. 22: pre-DVS) and proton NMR (FIG. 15).
Form E was obtained by slow cooling crystallization in NMP (FIG. 43). The unstable form has not been characterized further. A clear solution of Compound 4, Form B was dissolved (30 mg) in NMP at 50° C. and cooled from 50° C. to 2° C.

[8] = Water activity study (competition of forms, XRPD); details: room temperature
Description: Water activity study was performed using Compound 3 Form B (anhydrate) as the input material in EtOH/Water with different water content at RT. About 5 mg of Compound 3, Form B was used to prepare saturated solutions and the solutions were filtered by syringe at RT. 5 mg of Compound 3, Form D were added in the 1 mL of filtrate, and the suspension was slurried at RT for 3 and 7 days. The solids collected after filtration were analyzed by XRPD.
Protocol: excess amount of Compound 4 Form B was used to prepare saturated solutions. 6-8 mg each of Compound 4 Form B and Form D were added in the solutions. The suspension was slurried at room temperature for the corresponding times. Residual solids were collected by filtration with syringe filter, and characterized by XRPD.

[9] = pKa values and protonation state of Compound 1
[10] = Solubility estimates by aliquot addition method in various solvents; details: thermodynamic from solid
Description: Solubility estimates were conducted using an aliquot addition method in a variety of solvents at ambient temperature.
Samples with solvents with poor solubility were heated at 50° C.

SMILES: Cc1n[nH]c2nc(-c3ccc(NS(=O)(=O)c4cc(F)ccc4F)c(F)c3)nc(NCCN(C)C)c12 [Compound 2]
Post-DVS XRPD [2]: No change
wt % gain (DVS) ([2]; from 5 to 95% RH): 0.4 wt %
Solubility in water ([5]; water): < 1000 µg/mL

SMILES: Cc1n[nH]c2nc(-c3ccc(NS(=O)(=O)c4cc(F)ccc4F)c(F)c3)nc(NCCN(C)C)c12 [Compound 4 Form C]
form conversion during slurry in THF [6]: converted to di-mesylate Form D completely

SMILES: Cc1n[nH]c2nc(-c3ccc(NS(=O)(=O)c4cc(F)ccc4F)c(F)c3)nc(NCCN(C)C)c12.Cl [Compound 3 Form A]
Post-DVS XRPD [2]: No change
wt % gain (DVS) ([2]; from 5 to 96% RH): 2.1 wt %
solubility at 1 day ([5]; water, thermodynamic from solid): < 1000 µg/mL

SMILES: Cc1n[nH]c2nc(-c3ccc(NS(=O)(=O)c4cc(F)ccc4F)c(F)c3)nc(NCCN(C)C)c12.Cl [Compound 3 Form D]
hygroscopicity [2]: slightly hygroscopic
wt % gain (DVS) ([2]; first value of '1.5 wt % and 1.7 wt % gain from 80 to 90% RH'): 1.5 wt %
Reversibility (DVS) [2]: Minor hysteresis
water activity (aw) at which the form is stable / the most stable form [8]: lower than 0.6
Solid stability [3]: chemically and physically stable
Purity, Initial T0 [3]: 99.19%
Purity - 7 days, 60° C. [3]: 99.24%
Purity - 7 days, 40° C./75% RH [3]: 99.30%
XRPD, Initial T0 [3]: Form D
XRPD - 7 days, 60° C. [3]: Form D
XRPD - 7 days, 40° C./75% RH [3]: Form D
relative stability among the crystalline forms [4]: most stable form

SMILES: Cc1n[nH]c2nc(-c3ccc(NS(=O)(=O)c4cc(F)ccc4F)c(F)c3)nc(NCCN(C)C)c12 [Compound 1, N-[4-(4-[[2-(dimethylamino)ethyl]amino]-3-methyl-1H-pyrazolo[3,4-d]pyrimidin-6-yl)-2-fluorophenyl]-2,5-difluorobenzenesulfonamide]
pKa ([9]; first of four pKa values): 2.7
pKa ([9]; fourth of four pKa values): 11.8
Charge (dominant protonation state) ([9]; pH 5.81-8.85): Neutral (Zwitterion)
pKa ([9]; second of four pKa values): 5.81
pKa ([9]; third of four pKa values): 8.85
solubility ([10]; ACN, 50 °C, organic solvent or mixture, read-out: Solubility at 50° C.): < 1000 µg/mL
solubility ([10]; ACN, organic solvent or mixture, read-out: Solubility at RT): < 1000 µg/mL
solubility ([10]; DCM, 50 °C, organic solvent or mixture, read-out: Solubility at 50° C.): < 1000 µg/mL
solubility ([10]; DCM, organic solvent or mixture, read-out: Solubility at RT): < 1000 µg/mL
solubility ([10]; DMF, organic solvent or mixture, read-out: Solubility at RT): 33000 µg/mL (≈ 65.3 mM)
solubility ([10]; DMSO, organic solvent or mixture, read-out: Solubility at RT): 41000 µg/mL (≈ 81.1 mM)
solubility ([10]; EtOAc, 50 °C, organic solvent or mixture, read-out: Solubility at 50° C.): < 3000 µg/mL
solubility ([10]; EtOAc, organic solvent or mixture, read-out: Solubility at RT): < 3000 µg/mL
solubility ([10]; EtOH, 50 °C, organic solvent or mixture, read-out: Solubility at 50° C.): < 2000 µg/mL
solubility ([10]; EtOH, organic solvent or mixture, read-out: Solubility at RT): < 2000 µg/mL
solubility ([10]; IPA, 50 °C, organic solvent or mixture, read-out: Solubility at 50° C.): < 2000 µg/mL
solubility ([10]; IPA, organic solvent or mixture, read-out: Solubility at RT): < 2000 µg/mL
solubility ([10]; MTBE, 50 °C, organic solvent or mixture, read-out: Solubility at 50° C.): < 2000 µg/mL
solubility ([10]; MTBE, organic solvent or mixture, read-out: Solubility at RT): < 2000 µg/mL
solubility ([10]; MeOH, 50 °C, organic solvent or mixture, read-out: Solubility at 50° C.): > 1000 µg/mL
solubility ([10]; MeOH, organic solvent or mixture, read-out: Solubility at RT): < 1000 µg/mL
solubility ([10]; THF, 50 °C, organic solvent or mixture, read-out: Solubility at 50° C.): > 1000 µg/mL
solubility ([10]; THF, organic solvent or mixture, read-out: Solubility at RT): < 1000 µg/mL
solubility ([10]; acetone, 50 °C, organic solvent or mixture, read-out: Solubility at 50° C.): < 1000 µg/mL
solubility ([10]; acetone, organic solvent or mixture, read-out: Solubility at RT): < 1000 µg/mL
solubility ([10]; water, 50 °C, water, read-out: Solubility at 50° C.): < 2000 µg/mL
solubility ([10]; water, read-out: Solubility at RT): < 2000 µg/mL

The remaining lines, values ahead:

XRPD Resulting Form ([1]; Heated to 140° C. at 10° C./min, and cooled to 25° C. at 5° C./min): Form D
XRPD Resulting Form ([1]; Heated to 210° C. at 10° C./min, and cooled to 25° C. at 5° C./min): Form F
hygroscopicity [2]: slightly hygroscopic
Post-DVS XRPD [2]: No change
wt % gain (DVS) ([2]; at 80% RH (25° C.)): 0.99 wt %
water uptake (DVS) ([2]; at 80% RH, 25° C.): 0.99%
Solid stability [3]: chemically and physically stable
Purity, Initial T0 [3]: 99.29%
Purity - 7 days, 60° C. [3]: 99.17%
Purity - 7 days, 40° C./75% RH [3]: 99.29%
XRPD, Initial T0 [3]: Form D
XRPD - 7 days, 60° C. [3]: Form D
XRPD - 7 days, 40° C./75% RH [3]: Form D
relative stability among the crystalline forms [4]: most stable form
SMILES: Cc1n[nH]c2nc(-c3ccc(NS(=O)(=O)c4cc(F)ccc4F)c(F)c3)nc(NCCN(C)C)c12 [Compound 4 Form D]

Comments: hygroscopicity (DVS) [2]: Hygroscopic
hygroscopicity [2]: hygroscopic
Post-DVS XRPD [2]: No change
wt % gain (DVS) ([2]; from 5 to 75% RH): 1.3 wt %
wt % gain (DVS) ([2]; from 75 to 96% RH): 3.2 wt %
Reversibility (DVS) [2]: Reversible
physical stability on drying ([7]; vacuum oven for a day at 62-72° C.): retain its crystalline form
solubility ([5]; MTBE, organic solvent or mixture, thermodynamic from solid, MTBE at RT): < 2000 µg/mL
Solubility in water ([5]; water): > 25000 µg/mL
SMILES: Cc1n[nH]c2nc(-c3ccc(NS(=O)(=O)c4cc(F)ccc4F)c(F)c3)nc(NCCN(C)C)c12 [Compound 4 Form A]

form conversion after drying ([7]; obtained by cooling in NMP from 50° C. to 2° C.): converted to Form D
SMILES: Cc1n[nH]c2nc(-c3ccc(NS(=O)(=O)c4cc(F)ccc4F)c(F)c3)nc(NCCN(C)C)c12 [Compound 4 Form E]
